# Measured values taken from article doi:10.1101/2023.10.24.563163v2, “Targeting cancer with small molecule pan-KRAS degraders” (biorxiv, 2024).
# Where two headings read alike, the source gives them in different places.
# Experiments:
# KRAS^G12D [1] = biological target: T1, KRAS^G12D (Homo sapiens, UniProt P01116, G12D); parameters: endogenous; KRAS degradation by capillary electrophoresis immunodetection; conditions: read-out: DC50 24 h GP2d
# KRAS^G12D [2] = biological target: T1, KRAS^G12D; assay: cell-based; parameters: endogenous; KRAS degradation by capillary electrophoresis immunodetection; conditions: GP5d; read-out: Dmax 24 h GP5d [%]
# Procedure: (§1) Protein Detection by Capillary Electrophoresis Cells (50 000) were seeded the day before treatment into 96-well clear-flat bottom plates and incubated overnight (37 °C, humidified tissue culture incubator, 5% CO2). Compounds were added from DMSO stock solution using a digital dispenser and cells are incubated at 37 °C as specified (24 hours for KRAS degradation, 6 hours for determination of pERK levels). At the end of the incubation, medium was removed, cells washed with ice cold PBS, PBS removed and 50 µL lysis buffer (Meso Scale Discovery #R60TX-2) supplemented with 1:100 protease inhibitor solution, 1:100 phosphatase inhibitor I, 1:100 phosphatase inhibitor II (Meso Scale Discovery #R70AA-1), 0.5 µL/mL Benzonase (Novagen #70664-3) and 10 mM dithiothreitol added to each well. Plates with lysis buffer were immediately transferred to -80 °C freezer for at least 2 hours and then thawed on ice. Lysates were transferred to a 96 well V-bottom plate and insoluble debris was pelleted by centrifugation for 20 min. at 4 000 rpm. 40 µL of the supernatant were transferred to a fresh Eppendorf PCR plate. Analysis of protein levels was conducted using the Wes System, ProteinSimple (https://www.bio-techne.com/) as specified by the manufacturer. Briefly, Wes Master Mix (12-230 kDa WES Separation Module, 8 × 25 capillary cartridges, ProteinSimple #SM-W004) and molecular weight markers were prepared as specified in the manufacturer’s recommendations. To detect primary antibodies, anti-rabbit (Protein Simple #DM-001) or anti-mouse (Protein Simple #DM-002) detection modules were used. 7.2 µL lysate + 1.8 µL master mix were combined and heated to 95 °C for 5 min.
# KRAS^G12V = KRAS^G12V (Homo sapiens, UniProt P01116, G12V); parameters: endogenous; KRAS degradation by capillary electrophoresis immunodetection; conditions: read-out: DC50 24 h SW620 (converted)
# Sequence of KRAS^G12V (P01116 whole entry G12V): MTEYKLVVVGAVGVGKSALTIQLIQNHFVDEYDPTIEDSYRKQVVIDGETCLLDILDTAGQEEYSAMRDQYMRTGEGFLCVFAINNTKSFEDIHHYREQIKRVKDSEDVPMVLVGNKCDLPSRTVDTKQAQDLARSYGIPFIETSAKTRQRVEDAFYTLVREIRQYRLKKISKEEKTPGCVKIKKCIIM
# KRAS^WT = biological target: T2, KRAS^WT (Homo sapiens, UniProt P01116); assay: cell-based; parameters: KRAS degradation by capillary electrophoresis immunodetection
# T2 construct: endogenous wild type
# T2 sequence (P01116 whole entry): as the sequence (P01116 whole entry G12V) above, with V12G counted along it
# Procedure: as §1, with “5 min. […] Next, we set out to test the ability of a single pan-KRAS degrading molecule, compound 4, to selectively suppress oncogenic signaling and proliferation in cancer cell lines driven by diverse KRAS mutants. To this end, we first confirmed degradation of KRAS by compound 4 in KRAS-dependent (GP2d, SW620 and NCI-H358 expressing KRAS^G12D, - G12V or -G12C, respectively) as well as in KRAS independent (A-375, HEK293) cell lines (Fig. 3A, fig. S4A). […] Both inhibition and degradation repressed the established markers of MAPK signaling pERK (fig. S4B-D) and DUSP6 (Fig. 3B, fig. S4E) in KRAS dependent cell lines. […] Neither degradation nor inhibition had appreciable antiproliferative effects in the KRAS independent cell lines A-375 and HEK293 (Fig. 3C, fig. S4F).” for “5 min.”
# SW620 = assay: cells; parameters: DUSP6 modulation; conditions: Homo sapiens, SW-620, 6 h; read-out: IC50 DUSP6
# Excerpt: (§2) Next, we set out to test the ability of a single pan-KRAS degrading molecule, compound 4, to selectively suppress oncogenic signaling and proliferation in cancer cell lines driven by diverse KRAS mutants. To this end, we first confirmed degradation of KRAS by compound 4 in KRAS-dependent (GP2d, SW620 and NCI-H358 expressing KRAS^G12D, - G12V or -G12C, respectively) as well as in KRAS independent (A-375, HEK293) cell lines (Fig. 3A, fig. S4A). […] Both inhibition and degradation repressed the established markers of MAPK signaling pERK (fig. S4B-D) and DUSP6 (Fig. 3B, fig. S4E) in KRAS dependent cell lines. […] Neither degradation nor inhibition had appreciable antiproliferative effects in the KRAS independent cell lines A-375 and HEK293 (Fig. 3C, fig. S4F).
# NCI-H358 = assay: cells; parameters: DUSP6 modulation; conditions: Homo sapiens, NCI-H358, 6 h; read-out: IC50 DUSP6
# Excerpt: as §2
# GP2d = assay: cells; parameters: DUSP6 modulation; conditions: GP2d, 6 h; read-out: IC50 DUSP6
# Excerpt: as §2
# [3] = A-375, read-out: Dmax 24 h A375 [%]
# [4] = HEK293, read-out: Dmax 24 h HEK293 [%]
# T1 sequence (P01116 whole entry G12D): as the sequence (P01116 whole entry G12V) above, with V12D counted along it
SMILES,DC50 (KRAS^G12D [1]) [µM],Dmax (KRAS^G12D [2]) [%],DC50 (KRAS^G12V) [µM],Dmax (KRAS^WT; [3]) [%],Dmax (KRAS^WT; [4]) [%],IC50 (SW620) [µM],IC50 (NCI-H358) [µM],IC50 (GP2d) [µM]
"Cc1ncsc1-c1ccc([C@H](CO)NC(=O)[C@@H]2C[C@@H](O)CN2C(=O)[C@H](C(C)C)n2cc(OCCCCN3CCCN(c4nccc(-c5noc([C@@]6(C)CCCc7sc(N)c(C#N)c76)n5)n4)[C@@H](C)C3)nn2)cc1 [compound 7, ACBI3]",0.0039,99,0.0069,,,,,
Cc1ncsc1-c1ccc(CNC(=O)C2CC(O)CN2C(=O)C(c2cc(OCCCCN3CCCN(c4nccc(-c5noc(C6(C)CCCc7sc(N)c(C#N)c76)n5)n4)C(C)C3)no2)C(C)C)cc1 (stereo not drawn) [compound 5],,,,< 15,< 20,0.429,0.138,0.245
Cc1ncsc1-c1ccc(CNC(=O)[C@@H]2C[C@@H](O)CN2C(=O)[C@@H](NC(=O)CCCCCN2CCCN(c3nccc(-c4noc([C@@]5(C)CCCc6sc(N)c(C#N)c65)n4)n3)[C@@H](C)C2)C(C)(C)C)cc1 [compound 3],0.0763,99,0.278,76,48,0.205,0.248,0.129
Cc1ncsc1-c1ccc(CNC(=O)[C@@H]2C[C@@H](O)CN2C(=O)[C@@H](c2cc(OCCCCN3CCCN(c4nccc(-c5noc([C@@]6(C)CCCc7sc(N)c(C#N)c76)n5)n4)[C@@H](C)C3)no2)C(C)C)cc1 [compound 4],0.0036,100,,100,,0.0062,0.0114,0.0033
Cc1ncsc1-c1ccc(CNC(=O)[C@@H]2C[C@@H](O)CN2C(=O)[C@@H](NC(=O)COCCCN2CCCN(c3nccc(-c4noc([C@@]5(C)CCCc6sc(N)c(C#N)c65)n4)n3)[C@@H](C)C2)C(C)(C)C)cc1 [compound 2],,100,1.2,,,,,
